Experiments:
[1] = test system: Hep2 cells; details: uninfected cells treated 7 days
[2] = human, in vivo; cited from earlier work
[3] = test system: Hepatitis C virus (HCV); details: prolonged therapy; cited from earlier work

NC(=O)c1ncn([C@@H]2O[C@H](CO)[C@@H](O)[C@H]2O)n1 [Ribavirin]
toxicity in Hep2 cells [1]: significantly toxic

Nc1nc(O)c2ncn(COC(CO)CO)c2n1 [ganciclovir]
neutropenia and thrombocytopenia, share of patients treated [2]: 40%

O=c1[nH]c(=O)n([C@H]2C[C@H](O)[C@@H](CO)O2)cc1I [idoxuridine]
allergic reactions, share of patients treated [2]: 35%

interferon alpha
share of patients in whom therapy is effective [3]: about 40% of patients

Reference: patent US20040170959A1, “Methods for identifying antiviral oligonucleotides” (priority 2002, published 2004)
